Reference: patent publication US20260297070A1, “CYCLIC [COMPOUND LEFT OUT] WRN INHIBITORS” (Nimbus Wadjet, Inc., priority 2023, published 2026)

Biological target: T1, human Werner helicase (WRN-BV08, Uniprot Q14191, amino acids 517-1235 with L1074F point mutation) (Homo sapiens, UniProt Q14191, L1074F)
T1 construct: Uniprot Q14191, amino acids 517-1235 with L1074F point mutation; TEV-cleavable 8×His (C, cleaved yes); made in house; host or cells: Sf9 insect cells (baculovirus)
Assay: WRN (BV08) ADP-Glo Assay
Format: biochemical
Details: 0.15 nM WRN, 5 μM ATP, 0.1 nM DNA duplex, 15 min preincubation, 60 min at 25° C., pH 7.5, 1% DMSO; read-out: ADP-Glo_hWRN_IC50
Procedure, shortened: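 Helicase ATPase activity is measured at 25 °C over 60 min using 0.15 nM enzyme, 5 μM ATP and 0.1 nM DNA duplex, final DMSO 1%. ADP production is detected by luminescence, with IC50 derived by curve fitting.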

T1 sequence (Q14191 with tags, fused parts or gaps L1074F limits assumed): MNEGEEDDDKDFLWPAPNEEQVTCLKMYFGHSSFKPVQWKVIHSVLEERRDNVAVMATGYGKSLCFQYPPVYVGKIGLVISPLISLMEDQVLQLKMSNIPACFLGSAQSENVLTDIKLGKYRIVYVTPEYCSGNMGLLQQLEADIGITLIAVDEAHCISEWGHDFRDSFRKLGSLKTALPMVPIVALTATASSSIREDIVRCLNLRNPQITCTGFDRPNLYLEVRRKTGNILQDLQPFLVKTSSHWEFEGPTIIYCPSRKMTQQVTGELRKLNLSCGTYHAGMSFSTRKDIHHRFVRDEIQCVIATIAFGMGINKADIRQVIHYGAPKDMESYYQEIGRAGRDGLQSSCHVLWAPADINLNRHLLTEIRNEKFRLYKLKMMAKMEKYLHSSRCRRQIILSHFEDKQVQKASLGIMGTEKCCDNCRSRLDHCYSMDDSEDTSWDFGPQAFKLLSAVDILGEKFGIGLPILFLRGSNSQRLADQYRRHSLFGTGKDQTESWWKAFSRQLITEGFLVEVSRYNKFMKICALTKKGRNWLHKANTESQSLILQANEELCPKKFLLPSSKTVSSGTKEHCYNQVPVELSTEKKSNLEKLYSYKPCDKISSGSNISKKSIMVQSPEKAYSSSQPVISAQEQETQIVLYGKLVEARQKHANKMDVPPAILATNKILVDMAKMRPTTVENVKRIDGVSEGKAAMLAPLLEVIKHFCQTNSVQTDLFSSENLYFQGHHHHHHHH

Row | IC50 | Structure (SMILES)
1 | > 50 µM | O=C(CC1CC(c2ccccc2)C1)N(Cc1ccncc1)C1C=CS(=O)(=O)C1 (stereo not shown) [I-584, N-(1,1-dioxo-2,3-dihydro-1lambda6-thiophen-3-yl)-2-(3-phenylcyclobutyl)-N-[(pyridin-4-yl)methyl]acetamide]
2 | < 0.5 µM | COc1cc(CN(C(=O)C(c2ccc(-c3ccc(F)c(F)c3)cc2F)n2cc(C#N)cn2)[C@@H]2C=CS(=O)(=O)C2)ccn1 (single isomer, unassigned) [I-703, (2R*)-2-(4-cyano-1H-pyrazol-1-yl)-N-[(3R)-1,1-dioxo-2,3-dihydro-1lambda6-thiophen-3-yl]-N-[(2-methoxypyridin-4-yl)methyl]-2-{3,3′,4′-trifluoro-[1,1′-biphenyl]-4-yl}acetamide]
3 | 10 to 50 µM | O=C(Cc1ccc(-n2cccc2)cc1)N(Cc1cccnc1)C1C=CS(=O)(=O)C1 (stereo not shown) [I-358, N-(1,1-dioxo-2,3-dihydro-1lambda6-thiophen-3-yl)-N-[(pyridin-3-yl)methyl]-2-[4-(1H-pyrrol-1-yl)phenyl]acetamide]
4 | > 50 µM | COc1cc(CN(C(=O)C(C(=O)N(C)C)c2ccc(-c3ccc(F)cc3)cc2F)C2C=CS(=O)(=O)C2)ccn1 (single isomer, unassigned) [I-312, (2R**)-2-{3,4′-difluoro-[1,1′-biphenyl]-4-yl}-N-[(3R*)-1,1-dioxo-2,3-dihydro-1lambda6-thiophen-3-yl]-N-[(2-methoxypyridin-4-yl)methyl]-N′,N′-dimethylpropanediamide]
5 | 10 to 50 µM | O=C(Cn1cnc(-c2ccccc2)cc1=O)N(Cc1ccncc1)C1C=CS(=O)(=O)C1 (stereo not shown) [I-325, N-(1,1-dioxo-2,3-dihydro-1lambda6-thiophen-3-yl)-2-(6-oxo-4-phenyl-1,6-dihydropyrimidin-1-yl)-N-[(pyridin-4-yl)methyl]acetamide]
6 | 0.5 to 5 µM | COc1cc(CN(C(=O)C(OC2COC2)c2ccc(-c3ccc(F)c(F)c3)cc2F)[C@@H]2C=CS(=O)(=O)C2)ccn1 (single isomer, unassigned) [I-740, (2R*)-N-[(3R)-1,1-dioxo-2,3-dihydro-1lambda6-thiophen-3-yl]-N-[(2-methoxypyridin-4-yl)methyl]-2-(oxetan-3-yloxy)-2-{3,3′,4′-trifluoro-[1,1′-biphenyl]-4-yl}acetamide]
7 | 10 to 50 µM | O=C(Cc1ncc(-c2ccccc2)s1)N(Cc1ccncc1)C1C=CS(=O)(=O)C1 (stereo not shown) [I-300, N-(1,1-dioxo-2,3-dihydro-1lambda6-thiophen-3-yl)-2-(5-phenyl-1,3-thiazol-2-yl)-N-[(pyridin-4-yl)methyl]acetamide]
8 | 0.5 to 5 µM | Cc1cccn1-c1ccc(CC(=O)N(Cc2ccnnc2)C2C=CS(=O)(=O)C2)c(F)c1 (stereo not shown) [I-150, N-(1,1-dioxo-2,3-dihydro-1lambda6-thiophen-3-yl)-2-[2-fluoro-4-(2-methyl-1H-pyrrol-1-yl)phenyl]-N-[(pyridazin-4-yl)methyl]acetamide]
9 | 10 to 50 µM | COc1cc(CN(C(=O)Cn2cc(-c3ccccc3)c(C)n2)[C@@H]2C=CS(=O)(=O)C2)ccn1 [I-596, N-[(3R)-1,1-dioxo-2,3-dihydro-1lambda6-thiophen-3-yl]-N-[(2-methoxypyridin-4-yl)methyl]-2-(3-methyl-4-phenyl-1H-pyrazol-1-yl)acetamide]

Further lines, the compound ahead of its results:

Row | Structure (SMILES) | IC50
10 | O=C(Cc1csc(C2CC2)n1)N(Cc1ccncc1)C1C=CS(=O)(=O)C1 (stereo not shown) [I-438, 2-(2-cyclopropyl-1,3-thiazol-4-yl)-N-(1,1-dioxo-2,3-dihydro-1lambda6-thiophen-3-yl)-N-[(pyridin-4-yl)methyl]acetamide] | > 50 µM
11 | CC(=O)N(C)C(C(=O)N(Cc1ccncc1)C1C=CS(=O)(=O)C1)c1ccc(-c2ccc(F)cc2)cc1 (single isomer, unassigned) [I-378] | > 50 µM
12 | O=C(Cc1coc(-c2ccc(F)c(F)c2)n1)N(Cc1ccncc1)C1C=CS(=O)(=O)C1 (stereo not shown) [I-410, 2-[2-(3,4-difluorophenyl)-1,3-oxazol-4-yl]-N-(1,1-dioxo-2,3-dihydro-1lambda6-thiophen-3-yl)-N-[(pyridin-4-yl)methyl]acetamide] | > 50 µM
13 | COc1ccc2c(c1)CC(C(=O)N(Cc1ccncc1)C1C=CS(=O)(=O)C1)CO2 (stereo not shown) [I-756, N-(1,1-dioxo-2,3-dihydro-1lambda6-thiophen-3-yl)-6-methoxy-N-[(pyridin-4-yl)methyl]-3,4-dihydro-2H-1-benzopyran-3-carboxamide] | > 50 µM
14 | CC(C)(O)c1cc(CN(C(=O)C(OCc2ccccc2)c2ccc(-c3ccc(F)c(F)c3)cc2F)[C@@H]2C=CS(=O)(=O)C2)ccn1 (single isomer, unassigned) [I-814] | 0.5 to 5 µM
15 | CC(=O)N(C)C(C(=O)N(Cc1ccncc1)C1C=CS(=O)(=O)C1)c1ccc(-n2cccc2)cc1 (stereo not shown) [I-377, N-(1,1-dioxo-2,3-dihydro-1lambda6-thiophen-3-yl)-2-(N-methylacetamido)-N-[(pyridin-4-yl)methyl]-2-[4-(1H-pyrrol-1-yl)phenyl]acetamide] | > 50 µM
16 | CSc1ccc(CC(=O)N(Cc2ccncc2)C2C=CS(=O)(=O)C2)cc1 (stereo not shown) [I-339, N-(1,1-dioxo-2,3-dihydro-1lambda6-thiophen-3-yl)-2-[4-(methylsulfanyl)phenyl]-N-[(pyridin-4-yl)methyl]acetamide] | 10 to 50 µM
17 | COC(C(=O)N(Cc1ccnc(C(C)(C)O)c1)C1C=CS(=O)(=O)C1)c1ccc(-c2ccc(F)c(F)c2)cc1F (stereo not shown) [I-18, N-(1,1-dioxo-2,3-dihydro-1lambda6-thiophen-3-yl)-N-{[2-(2-hydroxypropan-2-yl)pyridin-4-yl]methyl}-2-methoxy-2-{3,3′,4′-trifluoro-[1,1′-biphenyl]-4-yl}acetamide] | < 0.5 µM
18 | O=C(c1ccc(-n2cccc2)cc1)N(Cc1ccccc1)C1C=CS(=O)(=O)C1 (stereo not shown) [I-486, N-benzyl-N-(1,1-dioxo-2,3-dihydro-1lambda6-thiophen-3-yl)-4-(1H-pyrrol-1-yl)benzamide] | > 50 µM
19 | CN(C)C(=O)C(C(=O)N(Cc1ccnc(C(C)(C)O)c1)C1C=CS(=O)(=O)C1)c1ccc(S(F)(F)(F)(F)F)cc1 (stereo not shown) [I-192, N′-(1,1-dioxo-2,3-dihydro-1lambda6-thiophen-3-yl)-N′-{[2-(2-hydroxypropan-2-yl)pyridin-4-yl]methyl}-N,N-dimethyl-2-[4-(pentafluoro-lambda6-sulfanyl)phenyl]propanediamide] | 0.5 to 5 µM
20 | CC(C)(O)c1cc(CN(C(=O)C(OCC2CC(F)(F)C2)c2ccc(-c3ccc(F)c(F)c3)cc2F)[C@@H]2C=CS(=O)(=O)C2)ccn1 (stereo in doubt) [I-792, rel-2-[(3,3-difluorocyclobutyl)methoxy]-N-[(3R)-1,1-dioxo-2,3-dihydro-1lambda6-thiophen-3-yl]-N-{[2-(2-hydroxypropan-2-yl)pyridin-4-yl]methyl}-2-{3,3′,4′-trifluoro-[1,1′-biphenyl]-4-yl}acetamide] | 0.5 to 5 µM
21 | CC(=O)N1CCN(C(=O)C(C(=O)N(Cc2ccncc2)C2C=CS(=O)(=O)C2)c2ccc(-c3ccc(F)cc3)cc2)CC1 (stereo not shown) [I-667, 3-(4-acetylpiperazin-1-yl)-N-(1,1-dioxo-2,3-dihydro-1lambda6-thiophen-3-yl)-2-{4′-fluoro-[1,1′-biphenyl]-4-yl}-3-oxo-N-[(pyridin-4-yl)methyl]propanamide] | 0.5 to 5 µM
22 | O=C(Cc1ccc2c(c1)COCC2)N(Cc1ccncc1)C1C=CS(=O)(=O)C1 (stereo not shown) [I-642, 2-(3,4-dihydro-1H-2-benzopyran-7-yl)-N-(1,1-dioxo-2,3-dihydro-1lambda6-thiophen-3-yl)-N-[(pyridin-4-yl)methyl]acetamide] | > 50 µM
23 | C=CCOC(C(=O)N(Cc1ccnc(C(C)(C)O)c1)[C@@H]1C=CS(=O)(=O)C1)c1ccc(-c2ccc(F)c(F)c2)cc1F (single isomer, unassigned) [I-641] | < 0.5 µM
24 | N#CCCN(C(=O)Cc1ccc(-c2ccc(F)cc2)cc1)C1C=CS(=O)(=O)C1 (stereo not shown) [I-386, N-(2-cyanoethyl)-N-(1,1-dioxo-2,3-dihydro-1lambda6-thiophen-3-yl)-2-{4′-fluoro-[1,1′-biphenyl]-4-yl}acetamide] | > 50 µM
25 | Cc1cccn1-c1ccc(CC(=O)N(Cc2ccc(C(=O)N3CCN(C(=O)CCCc4cn(Cc5ccc(NC(=O)CCOCCOCCOCCOCCNC(=O)CCCC[C@@H]6SC[C@@H]7NC(=O)N[C@@H]76)cn5)nn4)CC3)cc2)C2C=CS(=O)(=O)C2)c(F)c1 (stereo partly drawn) [II-2, 1-{5-[(3aS,4S,6aR)-2-oxo-hexahydro-1H-thieno[3,4-d]imidazol-4-yl]pentanamido}-N-{6-[(4-{4-[4-(4-{[N-(1,1-dioxo-2,3-dihydro-1lambda6-thiophen-3-yl)-2-[2-fluoro-4-(2-methyl-1H-pyrrol-1-yl)phenyl]acetamido]methyl}benzoyl)piperazin-1-yl]-4-oxobutyl}-1H-1,2,3-triazol-1-yl)methyl]pyridin-3-yl}-3,6,9,12-tetraoxapentadecan-15-amide] | 0.5 to 5 µM
26 | CC(F)(F)c1csc(CN(C(=O)Cc2ccc(S(F)(F)(F)(F)F)cc2)C2C=CS(=O)(=O)C2)n1 (stereo not shown) [I-625, N-{[4-(1,1-difluoroethyl)-1,3-thiazol-2-yl]methyl}-N-(1,1-dioxo-2,3-dihydro-1lambda6-thiophen-3-yl)-2-[4-(pentafluoro-lambda6-sulfanyl)phenyl]acetamide] | < 0.5 µM
27 | O=C(Cc1ccc(-n2cccc2)cc1)N(Cc1nc(C2CC2)cs1)C1C=CS(=O)(=O)C1 (stereo not shown) [I-111, N-[(4-cyclopropyl-1,3-thiazol-2-yl)methyl]-N-(1,1-dioxo-2,3-dihydro-1lambda6-thiophen-3-yl)-2-[4-(1H-pyrrol-1-yl)phenyl]acetamide] | 0.5 to 5 µM
28 | NCCc1cccn1-c1ccc(CC(=O)N(Cc2ccccc2)C2C=CS(=O)(=O)C2)cc1 (stereo not shown) [I-268, 2-{4-[2-(2-aminoethyl)-1H-pyrrol-1-yl]phenyl}-N-benzyl-N-(1,1-dioxo-2,3-dihydro-1lambda6-thiophen-3-yl)acetamide] | 5 to 10 µM
